The record followed here is article PMC3581553, “New Approaches of PARP-1 Inhibitors in Human Lung Cancer Cells and Cancer Stem-Like Cells by Some Selected Anthraquinone-Derived Small Molecules” (PLoS ONE, 2013).

Read-outs that look alike come from different tables or passages of the source. Where only a bound is given, the exact number is not on record here.

One assay concerns HOP-92. Nature of the assay: NCI-60 drug screen (SRB), NSCLC line HOP-92. In kind it is cell-based, human. Particulars: for GI50 / CC50: Homo sapiens; for CC50: read-out: LC50 (the source's name). The protocol: (§1) As a primary screening, seven selected compounds were submitted to the National Cancer Institute (NCI) cell lines screen for evaluation of their anticancer activity. From the data analysis, it follows that approximately 95% of the actives from the 60 cell lines screen can be identified. The detailed methods used for the 60 cell lines panel have been described elsewhere [54]–[59]. Briefly, cellular protein levels were determined after 48 hours of drug exposure by SRB colorimetry. Through the use of a time zero cell control, the cell growth can be determined for each cell line thus allowing calculations of GI50, TGI, and LC50. Comparison to plates not exposed to drug permits determination of concentration and times of exposure conferring GI50, TGI, and LC50. […] By these criteria, seven compounds reported from our compounds bank were all active and passed on for evaluation in the full panel of 60 human tumor cell lines. The panel is organized into nine subpanels representing diverse histology: leukemia, melanoma, and cancers of the lung, colon, kidney, ovary, breast, prostate, and central nervous system.

A further assay relates to NCI-H226. Nature of the assay: NCI-60 drug screen (SRB), NSCLC line NCI-H226. Format: cell-based, human. The conditions noted are these: for GI50 / CC50: Homo sapiens; for CC50: read-out: LC50 (the source's name). The method, then: as §1
For another assay, the system named is NCI-60 cancer cell lines. Nature of the assay: NCI-60 panel of human tumor cell lines, median GI50. Format: cell-based. The conditions noted are these: median over NCI-60 cancer cell lines, read-out: median 50% growth inhibitory concentration (GI50). The protocol: as §1
The next assay has as its system A3 clone. Nature of the assay: Sphere formation and cell viability assay in A3 clone. The conditions noted are these: treated A3 clone; for sphere formation: serum free medium with bFGF and EGF (10 ng/ml). In kind it is cell-based, human.
Assay [1] relates to PARP-1 mRNA expression in A3 cells. Nature of the assay: Quantitative RT-PCR of PARP-1 in treated A3 cells. In kind it is cell-based, human. An excerpt: RNA was isolated from cells with the TRIzol (Invitrogen) reagent […], and this was followed by RNA clean up with the RNeasy Minikit (QIAGEN). cDNA was produced with the First Strand cDNA Synthesis Kit (Roche). Real-time quantitative PCR reactions were set up in triplicate with the Brilliant II SYBR Green QPCR Master Mix (Stratagene) and run on an Mx3000P QPCR System (Stratagene).

[2] abbreviates: 48 hours drug exposure, SRB, read-out: GI50.
The mark [3] stands for this setting: NCI in vitro 60-cell lines Drug Screen, read-out: -Log GI50 (converted).

For `CN(C)CC(=O)Nc1ccc2c(c1)C(=O)c1cc(NC(=O)CN(C)C)ccc1C2=O` [NSC746364], the TGI with HOP-92 (48 hours drug exposure, SRB) is 31.7 µM; with NCI-H226 (48 hours drug exposure, SRB) it was 32.4 µM. The GI50 is 10.4 µM in the assay with HOP-92 (setting [2]), 10.5 µM in the assay with HOP-92 (setting [3]), 15.5 µM in the assay with NCI-H226 (setting [2]) and 15.5 µM with NCI-H226 (setting [3]). Also, the CC50 with HOP-92 (48 hours drug exposure, SRB) worked out at 96.6 µM; with NCI-H226 (48 hours drug exposure, SRB) it was 67.4 µM.
In the case of `CCN(CC)CCC(=O)Nc1ccc2c(c1)C(=O)c1cc(NC(=O)CCN(CC)CC)ccc1C2=O` [NSC746365], the TGI is given as 0.06 µM with HOP-92 (48 hours drug exposure, SRB) and 20.3 µM in the assay with NCI-H226 (48 hours drug exposure, SRB). Also, the GI50 in the assay with HOP-92 (setting [2]) was 0.01 µM; in the assay with HOP-92 (setting [3]) it was 0.0148 µM; with NCI-H226 (setting [2]), 6.56 µM; in the assay on NCI-H226 (setting [3]) it was 6.61 µM. Besides, the CC50 is 3.48 µM in the assay with HOP-92 (48 hours drug exposure, SRB) and 45.9 µM in the assay on NCI-H226 (48 hours drug exposure, SRB).
Turning to `O=C(CCN1CCCC1)Nc1ccc2c(c1)C(=O)c1cc(NC(=O)CCN3CCCC3)ccc1C2=O` [NSC746366], the TGI with HOP-92 (48 hours drug exposure, SRB) was determined as 0.82 µM; in the assay with NCI-H226 (48 hours drug exposure, SRB), 12.6 µM. Besides, the GI50 with HOP-92 (setting [2]) is 0.45 µM; in the assay with HOP-92 (setting [3]) it was 0.447 µM; in the assay with NCI-H226 (setting [2]) it was 2.72 µM; with NCI-H226 (setting [3]), 2.69 µM. Also, the CC50 in the assay with HOP-92 (48 hours drug exposure, SRB) is 34.6 µM; in the assay on NCI-H226 (48 hours drug exposure, SRB) it was 58.3 µM.
The molecule `CN(C)CCCSc1nc2ccc3c(c2[nH]1)C(=O)c1ccccc1C3=O` [NSC747854] returned a TGI in the assay with NCI-H226 (48 hours drug exposure, SRB) of 22.1 µM. Also, the figures for the GI50 with NCI-H226 (setting [2]), with NCI-H226 (setting [3]) and in the assay on NCI-60 cancer cell lines were 3.74 µM, 3.72 µM and 6.92 µM, respectively. Further, in the assay with NCI-H226 (48 hours drug exposure, SRB), the CC50 stood at 58.7 µM. Further, in the assay with A3 clone, the “cell growth / cell viability” value is recorded as “inhibit the cell growth”. Also, the sphere formation entry in the assay with A3 clone is given as “effectively block the sphere formation”. For the same molecule, the “expression levels of PARP-1 (mRNA)” value in assay [1] was “inhibit the expression levels of PARP-1”.
Consider `Cc1ccc(C(=O)Nc2c(NC(=O)CCl)ccc3c2C(=O)c2ccccc2C3=O)cc1` [NSC749232], for which the TGI in the assay on HOP-92 (48 hours drug exposure, SRB) was determined as 31.7 µM; in the assay with NCI-H226 (48 hours drug exposure, SRB) it was 20.8 µM. Further, the GI50 in the assay with HOP-92 (setting [2]) is 9.73 µM; in the assay on HOP-92 (setting [3]) it was 9.77 µM; with NCI-H226 (setting [2]), 8.81 µM; with NCI-H226 (setting [3]), 8.91 µM. The CC50 is above 100 µM in the assay with HOP-92 (48 hours drug exposure, SRB) and 49.1 µM with NCI-H226 (48 hours drug exposure, SRB). In the assay on A3 clone, the “cell growth / cell viability” value was “inhibit the cell growth”. In addition, the sphere formation entry in the assay with A3 clone is “effectively block the sphere formation”. The “expression levels of PARP-1 (mRNA)” value in assay [1] is listed as “inhibit the expression levels of PARP-1”.
Regarding `CN1CCN(Cc2nc3ccc4c(c3[nH]2)C(=O)c2ccccc2C4=O)CC1` [NSC749235], the total growth inhibition concentration (TGI) in the assay on HOP-92 (48 hours drug exposure, SRB) is 91.8 µM; in the assay with NCI-H226 (48 hours drug exposure, SRB), 31.1 µM. The GI50 in the assay with HOP-92 (setting [2]) is 7.97 µM; in the assay on HOP-92 (setting [3]), 7.94 µM; with NCI-H226 (setting [2]) it was 8.32 µM; with NCI-H226 (setting [3]) it was 8.32 µM. In addition, the CC50 was above 100 µM with HOP-92 (48 hours drug exposure, SRB) and above 100 µM with NCI-H226 (48 hours drug exposure, SRB). Further, the “cell growth / cell viability” value in the assay with A3 clone is “inhibit the cell growth”. For the same molecule, in the assay on A3 clone, the sphere formation entry was “effectively block the sphere formation”. Besides, the “expression levels of PARP-1 (mRNA)” value in assay [1] was “inhibit the expression levels of PARP-1”.
